Experimental data from patent publication US5008252A, “Process for inhibiting herpes simplex virus-specified thymidine kinase” (The University of North Carolina at Chapel Hill, priority 1987, dated 1991).

Tested on: HSV-1 (strain KOS)-infected HeLa BU cells
Experiment: Virus yield assay
Format: cell-based
Conditions: for reversal of antiviral activity by 5'-Et-dThd: 100 μM 5'-Et-dThd, ACV 15 μM, DHPG 2 μM, FIAC 1 μM, BVDU 1 μM, 5'-NH2-dThd 500 μM; for % PFU with a 5'-Et-dThd conc. of 2.5 μM: drug (μM as in row; None = 5'-Et-dThd alone) plus 2.5 μM 5'-Et-dThd; for % PFU with a 5'-Et-dThd conc. of 25 μM: drug (μM as in row; None = 5'-Et-dThd alone) plus 25 μM 5'-Et-dThd; for % PFU with a 5'-Et-dThd conc. of 0 μM: drug alone, drug μM in parentheses in row: ACV 15, FIAC 1, DHPG 2, BVDU 1, 5'-NH2-dThd 500
Procedure: Cell and virus growth inhibition. Cell growth inhibition and the virus yield assay were performed in accordance with the protocol described by Cheng, Y.-C., Grill, S.P., Ruth, J. and Bergstrom, D. E. (Antimicrob. Agents Chemother. 18:957-961 (1980)) with the exceptions that all studies were done using 5% dialyzed fetal bovine serum; the multiplicity of infection was 3 PFU/cell and Vero cells were used instead of CV-1 cells for titration in the virus yield assays.

[1] = Table II, drug (μM as in row; None = 5'-Et-dThd alone) plus 100 μM 5'-Et-dThd

Row | SMILES | reversal of antiviral activity by 5'-Et-dThd [fold] | % PFU with a 5'-Et-dThd conc. of 2.5 μM (Table II) [%] | % PFU with a 5'-Et-dThd conc. of 25 μM (Table II) [%] | % PFU with a 5'-Et-dThd conc. of 0 μM (Table II) [%] | % PFU with a 5'-Et-dThd conc. of 100 μM [1] [%] | % PFU with 100 μM 5'-Et-dThd relative to aphidicolin alone (0.2 μM aphidicolin plus 100 μM 5'-Et-dThd) | activity at 0.2 µM (Human alphaherpesvirus 1, HeLa, read-out: %PFU with a 5'-Et-dThd conc. of 0 μM) [%] | %PFU with a 5'-Et-dThd conc. of 5 μM (Table III, aphidicolin 0.2 μM (None = 5'-Et-dThd alone) plus 5 μM 5'-Et-dThd) [%] | %PFU with a 5'-Et-dThd conc. of 20 μM (Table III, aphidicolin 0.2 μM (None = 5'-Et-dThd alone) plus 20 μM 5'-Et-dThd) [%] | % PFU with a 5'-Et-dThd conc. of 100 μM (Table III, aphidicolin 0.2 μM (None = 5'-Et-dThd alone) plus 100 μM 5'-Et-dThd) [%]
1 | O=c1[nH]c(=O)n([C@H]2C[C@H](O)[C@@H](CO)O2)cc1/C=C/Br [BVDU, (E)-5-(2-bromovinyl)-2'-deoxyuridine] | 15 | 9.5 | 13 | 0.9 | – | – | – | – | – | –
2 | Cc1cn([C@H]2C[C@H](O)[C@@H](CN)O2)c(=O)[nH]c1=O [5'-NH2-dThd, 5'-amino-dThd] | 250 | 0.3 | 3 | 0.2 | 50 | – | – | – | – | –
3 | Nc1nc(=O)n([C@@H]2O[C@H](CO)[C@@H](O)[C@@H]2F)cc1I [FIAC, fluoroido-arabinosyl-cytosine] | 98 | 26 | 59 | 0.6 | – | – | – | – | – | –
4 | C[C@@]1(CO)[C@H](O)CC[C@@]2(C)[C@H]1CC[C@H]1C[C@@H]3C[C@@]12CC[C@]3(O)CO [Aphidicolin, aphidicolin] | – | – | – | – | – | less than one half | 54 | 65 | 45 | 21
5 | Nc1nc2c(ncn2COC(CO)CO)c(=O)[nH]1 [DHPG, 9-(1,3-dihydroxy-2-propoxymethyl) guanine] | 100 | 0.2 | 4 | 0.1 | 10 | – | – | – | – | –
6 | Nc1nc2c(ncn2COCCO)c(=O)[nH]1 [ACV, acyclovir] | 35 | 9 | 45 | 2 | 70 | – | – | – | – | –
